# Where two headings read alike, the source gives them in different places.
# Assays:
# MRSA (2658 RCMB) = experiment: MIC against MRSA (2658 RCMB), broth dilution; format: cell-based, Staphylococcus aureus; conditions: Staphylococcus aureus; Table 7; initial screening, MRSA (2658 RCMB); read-out: minimum inhibitory concentration (MIC)
# How it was run: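 Broth dilution in cation-adjusted Mueller-Hinton broth with an inoculum of about 5×10^5 CFU/mL (from a 0.5 McFarland suspension), using triplicate serial dilutions. MIC was the lowest concentration with no visible growth by visual inspection, reported as the mean of triplicates.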
# MRSA (USA300) = experiment: Time-kill assay; format: cell-based, Staphylococcus aureus
# Procedure: Aliquots (100 μL) were taken from each sample after 2, 4, 6, 8, 10, 12, and 24 hours, serially diluted in phosphate-buffered saline, and transferred to Trypticase soy agar (TSA) (Becton, Dickinson and Company, Sparks, Md., USA) plates. Plates were incubated at 37° C. for at least 16 hours before counting viable CFU/mL to determine the time required to reduce the bacterial cell count by 3-log10.
# S. aureus ATCC 6538 = experiment: MIC/MBC S. aureus strains (Table 8); format: cell-based; conditions: Staphylococcus aureus, ATCC6538
# Procedure: (§1) A bacterial solution equivalent to 0.5 McFarland standard was prepared and diluted in cation-adjusted Mueller-Hinton broth (CAMHB) to achieve a bacterial concentration of about 5×10^5 CFU/mL and seeded in 96-well plates. Enterococcus faecium was diluted in brain heart infusion broth. Enterococcus faecalis, Streptococcus pneumonia and Listeria monocytogenes were diluted in tryptone soya broth (TSB).
# S. aureus NRS107 = experiment: MIC/MBC S. aureus strains (Table 8); format: cell-based, Staphylococcus aureus; conditions: Staphylococcus aureus; Table 8; S. aureus NRS107
# Procedure: as §1
# [1] = tested on: Cephalosporin-resistant Streptococcus pneumoniae ATCC 51916; experiment: MIC/MBC Gram-positive pathogens (Table 9); format: cell-based; conditions: ATCC51916
# Procedure: as §1
# [2] = tested on: Enterococcus faecalis ATCC 51299 (VRE); experiment: MIC/MBC Gram-positive pathogens (Table 9); format: cell-based
# Procedure: as §1
# [3] = tested on: Methicillin-resistant Streptococcus pneumoniae ATCC 700677; experiment: MIC/MBC Gram-positive pathogens (Table 9); format: cell-based; conditions: ATCC700677
# Procedure: as §1
# MRSA USA400 (NRS123) = experiment: Multi-step resistance selection experiment; format: cell-based, Staphylococcus aureus; conditions: MRSA USA400, sub-lethal doses, 14 daily passages
# Procedure: To determine if MRSA would be capable of forming resistance to the compounds quickly, a multi-step resistance selection experiment was conducted, as described previously. The broth microdilution assay was utilized to determine the MIC of the tested compounds and rifampicin exposed to MRSA USA400 (NRS123) for 14 passages over a period of two weeks. Resistance was classified as a greater than four-fold increase in the initial MIC, as reported elsewhere.
# [4] = tested on: human colorectal (Caco-2) cell; experiment: In vitro cytotoxicity against Caco-2 cells (MTS); format: cell-based; conditions: at 32 μg/mL
# Procedure: Tested compounds were assayed (at concentrations of 16, 32, and 64 μg/mL) against a human colorectal (Caco-2) cell to determine the potential toxic effect to mammalian cells in vitro. Briefly, cells were cultured in Dulbecco's Modified Eagle Medium (DMEM) supplemented with 20% fetal bovine serum (FBS), non-essential amino acids (1×), and penicillin-streptomycin at 37° C. with CO2 (5%). Control cells received DMSO alone at a concentration equal to that in drug-treated cell samples. The cells were incubated with the compounds (in triplicate) in a 96-well plate at 37° C. with CO2 (5%) for two hours. The assay reagent MTS 3-(4,5-dimethylthiazol-2-yl)-5-(3-carboxymethoxyphenyl)-2-(4-sulfophenyl)-2H-tetrazolium) (Promega, Madison, Wis., USA) was subsequently added and the plate was incubated for four hours. Absorbance readings (at OD490) were taken using a kinetic microplate reader (Molecular Devices, Sunnyvale, Calif., USA). The quantity of viable cells after treatment with each compound was expressed as a percentage of the viability of DMSO-treated control cells (average of triplicate wells±standard deviation). The toxicity data was analyzed via a two-way ANOVA, with post hoc Sidak's multiple comparisons test (P<0.05), utilizing GraphPad Prism 6.0 (GraphPad Software, La Jolla, Calif.).
# [5] = In vivo PK in rats after single IV bolus injection; set-up: species or system Sprague-Dawley (SD) rats
# Procedure: In vivo Pharmacokinetics. Pharmacokinetic studies were performed in male naïve Sprague-Dawley (SD) rats (three animals) following Institutional Animal Care and Use Committee guidelines. An IV bolus of a 5 μM solution of compound 19 was directly administered via tail-vein injection. Blood samples were collected over a 12-hour period post dose into Vacutainer tubes containing EDTA-K2. Plasma was isolated, and the concentration of tested compounds in plasma was determined with LC/MS/MS after protein precipitation with acetonitrile. Two-compartmental pharmacokinetic analysis was performed on plasma concentration data in order to calculate pharmacokinetic parameters.
# [6] = tested on: methicillin-sensitive S. aureus (MSSA), MRSA and VRSA strains; conditions: literature (Moran, N. Engl. J. Med. 2006); cited from earlier work
# NRS119 (MRSA) = experiment: MIC/MBC clinical isolate panel (Table 3); format: cell-based, S. aureus; conditions: Staphylococcus aureus
# Procedure: (§2) Bacteria were cultured in cation-adjusted Mueller Hinton broth in a 96-well plate. Compounds, using triplicate samples, were added to the plate and serially diluted. […] Plates were visually inspected and the MIC was categorized as the concentration at which no visible growth of bacteria was observed. The average of triplicate MIC determinations is reported.
# as §1
# NRS123 (MRSA USA400) = experiment: MIC/MBC clinical isolate panel (Table 3); format: cell-based, S. aureus; conditions: Staphylococcus aureus
# Procedure: as §2, §1
# NRS382 (MRSA USA100) = experiment: MIC/MBC clinical isolate panel (Table 3); format: cell-based, S. aureus; conditions: Staphylococcus aureus
# Procedure: as §2, §1
# NRS383 (MRSA USA200) = experiment: MIC/MBC clinical isolate panel (Table 3); format: cell-based, S. aureus; conditions: Staphylococcus aureus
# Procedure: as §2, §1
# NRS384 (MRSA USA300) = experiment: MIC/MBC clinical isolate panel (Table 3); format: cell-based, S. aureus; conditions: Staphylococcus aureus
# Procedure: as §2, §1
# NRS72 (MSSA) = experiment: MIC/MBC clinical isolate panel (Table 3); format: cell-based, S. aureus; conditions: Staphylococcus aureus
# Procedure: as §2, §1
# VRSA10 = experiment: MIC/MBC clinical isolate panel (Table 3); format: cell-based, S. aureus; conditions: Staphylococcus aureus
# Procedure: as §2, with “MRSA clinical isolates, and vancomycin-resistant Staphylococcus aureus (VRSA) strain were obtained through the Network of Antimicrobial Resistance in Staphylococcus aureus (NARSA) program. In addition, vancomycin-resistant Enterococcus faecium (VRE) strain was obtained from the ATCC. Bacteria” for “Bacteria”
# (§3) The minimum inhibitory concentration (MIC) of tested compounds and control antibiotics were determined using the broth microdilution method in accordance with the recommendations contained in the Clinical and Laboratory Standards Institute guidelines, against methicillin-sensitive (ATCC 6538 and NRS107), methicillin-resistant (MRSA), and vancomycin-resistant (VRSA) Staphylococcus aureus, Staphylococcus epidermidis, Enterococcus faecalis, E. faecium, Listeria monocytogenes, and Streptococcus pneumoniae clinical isolates. A bacterial solution equivalent to 0.5 McFarland standard was prepared and diluted in cation-adjusted Mueller-Hinton broth (CAMHB) to achieve a bacterial concentration of about 5×10^5 CFU/mL and seeded in 96-well plates. Enterococcus faecium was diluted in brain heart infusion broth. Enterococcus faecalis, Streptococcus pneumonia and Listeria monocytogenes were diluted in tryptone soya broth (TSB). Compounds and control drugs were added in the first row of 96-well plates and serially diluted (to achieve a concentration gradient ranging from 128 to 1 μg/mL). Plates were then incubated aerobically at 37° C. for at least 18 hours. The minimum bactericidal concentration (MBC) of the active compounds was tested by plating 5 μL from wells with no growth onto Tryptic soy agar (TSA) plates.
# VRE ATCC 700221 = experiment: MIC/MBC clinical isolate panel (Table 3); format: cell-based, Enterococcus faecium; conditions: Enterococcus
# Procedure: as §2, with “MRSA clinical isolates, and vancomycin-resistant Staphylococcus aureus (VRSA) strain were obtained through the Network of Antimicrobial Resistance in Staphylococcus aureus (NARSA) program. In addition, vancomycin-resistant Enterococcus faecium (VRE) strain was obtained from the ATCC. Bacteria” for “Bacteria”
# as §3
# VRS10 (VRSA) = experiment: MIC/MBC S. aureus strains (Table 8); format: cell-based; conditions: Staphylococcus aureus, VRSA
# Procedure: as §3
# VRS12 (VRSA) = experiment: MIC/MBC S. aureus strains (Table 8); format: cell-based; conditions: Staphylococcus aureus, VRSA
# Procedure: as §3
# [7] = tested on: Enterococcus faecium ATCC 700221 (VRE); experiment: MIC/MBC Gram-positive pathogens (Table 9); format: cell-based; conditions: Enterococcus faecium
# Procedure: as §3
# [8] = tested on: methicillin-sensitive S. aureus (MSSA), MRSA and VRSA strains; experiment: MIC/MBC summary over the S. aureus strain panel; format: cell-based
# Procedure: as §3
# [9] = tested on: MRSA USA300 (NRS384) biofilm; experiment: MRSA biofilm eradication, microtiter dish biofilm formation assay; format: cell-based, Staphylococcus aureus
# Procedure: The bacterial suspension was removed and compounds were added at concentrations ranging from 128 to 1 μg/mL in TSB. Compounds were incubated with the biofilm at 37° C. for 24 hours. In order to quantify the biofilm mass, the bacterial suspension was removed and wells were washed with phosphate-buffered saline to remove planktonic bacteria. An aliquot of 0.1% crystal violet was added to each well to stain biofilm mass. After 30 minutes, wells were washed with sterile water and dried. Wells were de-stained using 100% ethanol prior to quantifying biofilm mass using a spectrophotometer (OD595). Data are presented as percent eradication of MRSA USA300 biofilm for each test agent relative to the negative (DMSO) control wells. Data were analyzed using two-way ANOVA with post-hoc Sidak's test for multiple comparisons (P<0.05).
structure (smiles),measurement,setting,value
"Cc1nc(-c2ccc(C(C)(C)C)cc2)sc1-c1ccnc(NCCN)n1 [Compound 54, N-(4-(2-(4-(tert-Butyl)phenyl)-4-methylthiazol-5-yl)pyrimidin-2-yl)ethane-1,2-diamine]",MIC,MRSA (2658 RCMB),1.17 µg/mL
same,"bactericidal / bacteriostatic behaviour in time-kill assay, in words","MRSA (USA300); MRSA, 3.0×MIC",rapid bactericidal activity
same,time to completely eradicate the MRSA inoculum,"MRSA (USA300); t-butyl series, 3.0×MIC",within two to four hours
same,MIC,S. aureus ATCC 6538,4 µg/mL
same,MIC,S. aureus NRS107,4 µg/mL
same,MBC,[1],16 µg/mL
same,MIC,"[2]; Table 9, Enterococcus faecalis ATCC 51299 (VRE)",16 µg/mL
same,MBC,"[2]; Table 9, Enterococcus faecalis ATCC 51299 (VRE), read-out: MBC",16 µg/mL
same,MBC,[3],16 µg/mL
same,MIC,[3],2 µg/mL
same,increase in MIC by/after the ninth passage,MRSA USA400 (NRS123),one-fold
same,"tolerability to human colorectal cells, in words",[4],highly tolerable
same,AUC,[5],3.98 mg·h/L
same,CL (clearance),[5],1.26 L/h
same,Vdss (volume of distribution at the steady state),[5],3.39 L
same,"Vβ (volume of distribution in 2nd compartment, peripheral tissues)",[5],16.36 L
same,t1/2 (half-life),[5],9.03 h
CCO/N=C(\C(=O)N[C@@H]1C(=O)N2C(C(=O)[O-])=C(Sc3nc(-c4cc[n+](C)cc4)cs3)CS[C@H]12)c1nsc(N)n1 [cefatroline],"MIC range against MRSA and VRSA, reported",[6],0.5 to 4 µg/mL
"CN[C@H](CC(C)C)C(=O)N[C@H]1C(=O)N[C@@H](CC(N)=O)C(=O)N[C@H]2C(=O)N[C@H]3C(=O)N[C@H](C(=O)N[C@H](C(=O)O)c4cc(O)cc(O)c4-c4cc3ccc4O)[C@H](O)c3ccc(c(Cl)c3)Oc3cc2cc(c3O[C@@H]2O[C@H](CO)[C@@H](O)[C@H](O)[C@H]2O[C@H]2C[C@](C)(N)[C@H](O)[C@H](C)O2)Oc2ccc(cc2Cl)[C@H]1O [Vancomycin, vancomycin, reference compound]",MIC,NRS119 (MRSA),1 µg/mL
same,MIC,NRS123 (MRSA USA400),1 µg/mL
same,MIC,NRS382 (MRSA USA100),1 µg/mL
same,MIC,NRS383 (MRSA USA200),1 µg/mL
same,MIC,NRS384 (MRSA USA300),1 µg/mL
same,MIC,NRS72 (MSSA),2 µg/mL
same,MBC,VRSA10,> 64 µg/mL
same,MIC,VRSA10,> 64 µg/mL
same,MBC,VRE ATCC 700221,> 64 µg/mL
same,MIC,VRE ATCC 700221,> 64 µg/mL
same,time to three-log10 reduction in the initial inoculum of MRSA,MRSA (USA300); 3.0×MIC,24 hours
same,time required to reduce the MRSA inoculum to zero colony forming units,"MRSA (USA300); MRSA US300, 3.0×MIC",24 h
same,MBC,VRS10 (VRSA),> 64 µg/mL
same,MIC,VRS10 (VRSA),> 64 µg/mL
same,MBC,VRS12 (VRSA),> 64 µg/mL
same,MIC,VRS12 (VRSA),> 64 µg/mL
same,MBC,[7],> 64 µg/mL
same,MIC,[7],> 64 µg/mL
same,MBC,[2]; Enterococcus faecalis,64 µg/mL
same,MIC range against MRSA,[8],1 to 2 µg/mL
same,MRSA biofilm mass disrupted,[9]; at 1×MIC,3%
same,reduction of MRSA biofilm mass,[9]; at 32×MIC,34%

# From patent US10414759B2, “Phenylthiazoles and uses thereof” (Purdue Research Foundation, priority 2017, dated 2019)
